Patent EP0405273A2, “Method for producing readily soluble crystalline alfa-L-aspartyl-L-phenylalanine methyl ester” (MITSUI TOATSU CHEMICALS, Inc., priority 1989, dated 1991)
Peptide text beside a SMILES is read from it.

How the values were obtained:
[1] = Solubilization test (time for complete dissolution in water); type: physicochemical; details: 250 mg ground sample in 250 ml pure water at 26 ± 2°C, stirred at 350 to 360 rpm, stirring and standing repeated every 30 seconds
Procedure: The present invention will be described in detail in the following examples, in which the solubilization test was carried out by the following procedure: Solubilization Test
Into 250 ml of pure water having a temperature of 26 ± 2°C which was being stirred (at 350 to 360 rpm by a magnetic stirrer) was poured 250 mg of a ground α-APM sample. Stirring and standing were repeated every 30 seconds. The time required for the sample to dissolve completely was measured.

[2] = Solubilization of conventionally recrystallized α-APM in water at room temperature; type: physicochemical; details: 250 mg crushed powder in 250 ml of water at room temperature, stirring and standing alternated every 30 seconds
From the text: α-APM purified y conventional recrystallization methods has the disadvantage of poor solubilization (rate of solution) in water.

[3] = widely known property stated in the prior art section; cited from earlier work

Compound	time required for the sample to dissolve completely [1]	also measured
COC(=O)[C@H](Cc1ccccc1)NC(=O)[C@@H](N)CC(=O)O [Comparative Example, α-L-aspartyl-L-phenylalanien emthyl ester, reference compound] (H-Asp-Phe-OMe)	25 min	
COC(=O)[C@H](Cc1ccccc1)NC(=O)[C@@H](N)CC(=O)O [Example 1, α-L-aspartyl-L-phenylalanien emthyl ester] (H-Asp-Phe-OMe)	≤ 5 min	
COC(=O)[C@H](Cc1ccccc1)NC(=O)[C@@H](N)CC(=O)O [Example 2, α-L-aspartyl-L-phenylalanien emthyl ester] (H-Asp-Phe-OMe)	≤ 5 min	
COC(=O)[C@H](Cc1ccccc1)NC(=O)[C@@H](N)CC(=O)O [α-APM obtained conventionally by recrystallization from a 50] [α-L-aspartyl-L-phenylalanien emthyl ester] (H-Asp-Phe-OMe)		time required to dissolve completely [2]: more than 15 minutes
COC(=O)[C@H](Cc1ccccc1)NC(=O)[C@@H](N)CC(=O)O [α-APM, α-L-aspartyl-L-phenylalanien emthyl ester] (H-Asp-Phe-OMe)		degree of sweetness [3]: about 200 times the sweetness of sucrose

Second part, led by results:

time required for the sample to dissolve completely [1]	Compound	also measured
≤ 5 min	COC(=O)[C@H](Cc1ccccc1)NC(=O)[C@@H](N)CC(=O)O [Example 4, α-L-aspartyl-L-phenylalanien emthyl ester] (H-Asp-Phe-OMe)	
≤ 5 min	COC(=O)[C@H](Cc1ccccc1)NC(=O)[C@@H](N)CC(=O)O [Example 3, α-L-aspartyl-L-phenylalanien emthyl ester] (H-Asp-Phe-OMe)	
≤ 5 min	COC(=O)[C@H](Cc1ccccc1)NC(=O)[C@@H](N)CC(=O)O [Example 5, α-L-aspartyl-L-phenylalanien emthyl ester] (H-Asp-Phe-OMe)	
